Results taken from US20210275518A1, “METHODS OF USING REBASTINIB IN THE TREATMENT OF DISORDERS” (Deciphera Pharmaceuticals, LLC, priority 2020, published 2021).

Experiments:
Format in all cases: in vivo, human
[1] = test system: advanced or metastatic solid tumors; assay: Phase 1b/2 study of rebastinib in combination with paclitaxel (Part 1; overall safety)
Source text: (§1) This is an open-label Phase 1b/2 multicenter study in patients with advanced or metastatic solid tumors where paclitaxel may be considered appropriate treatment. Rebastinib will be administered in combination with paclitaxel in repeated 28-day cycles to primarily assess the safety, tolerability and preliminary efficacy of the combination. Adverse events (AEs) will be assessed, and laboratory values, vital sign measurements, electrocardiograms (ECGs), ophthalmologic examinations, physical examinations and Eastern Cooperative Oncology Group (ECOG) Performance Status (PS) will be obtained to evaluate the safety and tolerability of rebastinib when administered in combination with paclitaxel. Pharmacokinetic (PK) and pharmacodynamic (PD) samples will be collected at pre-specified time points.
The study consists of two parts (Part 1 and Part 2). In Part 1, patients were assigned to one of two pre-defined dose levels of rebastinib (50 or 100 mg BID) in combination with paclitaxel administered by intravenous (IV) infusion at 80 mg/m^2. Paclitaxel is to be administered by IV infusion at 80 mg/m^2 over approximately 60 minutes on Day 1, Day 8 and Day 15 of repeated 28-day cycles. Rebastinib is to be administered orally prior to the paclitaxel infusion.
Each arm was planned to enroll at least 12 evaluable patients. Additionally, if rebastinib at 100 mg BID was deemed unsafe, an additional arm dosing at 75 mg BID of rebastinib in combination with paclitaxel may be initiated. Up to 36 evaluable patients were dosed in Part 1. Safety was continuously monitored, and any arm may be terminated early if deemed unsafe by the Sponsor.
Safety and tolerability, PK and PD, and preliminary efficacy data obtained in Part 1 was used to determine the RP2D. Data for at least 12 evaluable patients through Cycle 1 must be available in an arm to declare the dose as the RP2D. Patients must receive ≥80% of planned doses of rebastinib and paclitaxel in Cycle 1 to be considered as evaluable. Enrollment of patients was paused for determination of the RP2D prior to initiation of Part 2. An RP2D was chosen by the Sponsor in consultation with the Investigators.

[2] = test system: TIE2; assay: Pharmacodynamics: circulating Ang-2 levels (Part 1); conditions: with exposure to higher doses of rebastinib in combination with paclitaxel; indicating TIE2 inhibition
Source text: as §1

[3] = test system: ovarian cancer; assay: Phase 1b/2 rebastinib + paclitaxel, Part 2 Cohort 3 (RECIST v1.1, CA-125 response)
Source text: Upon determination of the RP2D, Part 2 is initiated to dose up to 165 evaluable patients using the RP2D across five indication-specific cohorts. A Simon's two-stage design is applied to Part 2 to further evaluate the safety, tolerability, and preliminary efficacy of rebastinib in combination with paclitaxel in triple-negative breast (Cohort 1), inflammatory breast (Cohort 2), ovarian (Cohort 3), endometrial adenocarcinoma (Cohort 4), and gynecologic carcinosarcoma (Cohort 5) cancers. Each cohort initially enrolls up to 18 evaluable patients in the first stage. Patients must receive at least 1 dose of the combination and have 1 post-baseline assessment (including assessment of clinical progression) or be discontinued prior to the postbaseline disease assessment due to an AE at least possibly related to rebastinib, to be considered evaluable. Tumor response is assessed according to Response Evaluation Criteria in Solid Tumors (RECIST) Version 1.1. The decision to enroll patients beyond the first stage is based on response assessments obtained after the first post-dose response assessment of the last patient enrolled in the first stage of a cohort. […] If ≤4 responses are seen in a cohort, the cohort will be terminated. If >4 responses are seen prior to the last evaluable patient in the first stage, expanding the cohort may be triggered earlier. Enrollment in each cohort will pause between the first and second stage of the Simon two-stage for evaluation of response. Patients will receive study treatment until they develop progressive disease, experience unacceptable toxicity, or withdraw consent.
29 patients with ovarian cancer were enrolled in this portion of the study as a safety population. Patients were treated with rebastinib (50 or 100 mg BID) in combination with 80 mg/m^2 intravenous weekly paclitaxel (day 1, day 8, and day 15 of repeated 28-day cycles). 10 of the patients treated with rebastinib were at a starting dose of 100 mg BID and 80 mg/m^2 weekly paclitaxel, of which the doses of 7 were reduced to 50 mg BID and 80 mg/m^2 weekly paclitaxel, and […] were at a starting dose of 50 mg BID and 80 mg/m^2 weekly paclitaxel. 23 (79%) patients received ≥4 prior anticancer regimens, and all patients received prior platinum and taxane-based therapy; 89% received anti-angiogenic therapy, 62% received anti-PARP therapy, and 31% received immunotherapy.
24 of the 29 patients met the modified intention-to-treat (mITT) criteria. Anti-tumor activity was assessed using RECIST v1.1 and Gynecological Cancer Intergroup CA-125 response. From 24 patients in the mITT population, the objective response rate was 38% and the clinical benefit rate at 8 weeks was 88%.
38 patients in a platinum-resistant ovarian cancer cohort were enrolled in this portion of the study as a safety population. Patients were treated with rebastinib (50 or 100 mg BID) in combination with 80 mg/m^2 intravenous weekly paclitaxel (day 1, day 8, and day 15 of repeated 28-day cycles). 34 of the 38 patients met the met the modified intention-to-treat (mITT) criteria. 27 (71%) patients received ≥4 prior anticancer regimens, and 97% patients received prior platinum and taxane-based therapy; 84% received bevacizumab, 66% received a PARP inhibitor, 31% received immunotherapy, and the average number of lines of therapy after platinum resistance was 2.

[4] = Cohort 3, time point 1, of the twelve with stable disease at Cycle 3, Day 1, Cycle 5, Day 1
[5] = Cohort 3, time point 1, rebastinib + paclitaxel, Cycle 3, Day 1
[6] = Cohort 3, time point 2, 17 evaluable patients
[7] = Table 1, Cohort 3, time point 4, mITT N = 34, patients (%)
[8] = Table 1, Cohort 3, time point 4, n 12

CNC(=O)c1cc(Oc2ccc(NC(=O)Nc3cc(C(C)(C)C)nn3-c3ccc4ncccc4c3)c(F)c2)ccn1 [rebastinib]
Partial response, patients ([1]; Part 1, rebastinib 50 mg BID with weekly paclitaxel 80 mg/m^2): 5 patients
Partial response, patients ([1]; Part 1, rebastinib 100 mg BID with weekly paclitaxel 80 mg/m^2): 3 patients
Partial response, patients total ([1]; Part 1, rebastinib 50 and 100 mg BID with weekly paclitaxel 80 mg/m^2): 8 patients
Tolerability ([1]; Part 1, rebastinib 50 and 100 mg BID with weekly paclitaxel 80 mg/m^2, patients with advanced tumors): generally well tolerated
Muscular weakness ([1]; rebastinib 100 mg BID with weekly paclitaxel 80 mg/m^2, required dose reduction to 50 mg BID): high incidence
Mean circulating Ang-2 levels [2]: increased
Patients with partial response [3, 4]: three
Patients with stable disease [3, 4]: four
Patients with partial response (second statement) ([3]; Cohort 3, time point 1, of the twelve with stable disease at Cycle 3, Day 1, Cycle 5, Day 1 (stated a second time)): one
Patients with stable disease ([3]; Cohort 3, time point 1, of the twelve with stable disease at Cycle 3, Day 1, Cycle 5, Day 8): one
Patients with stable disease ([3]; Cohort 3, time point 1, of the twelve with stable disease at Cycle 3, Day 1, Cycle 8, Day 1): two
Patients with partial response ([3]; Cohort 3, time point 1, of the two with partial response at Cycle 3, Day 1, Cycle 5, Day 1): one
Patients with partial response [3, 5]: Two
Patients with stable disease [3, 5]: twelve
CBR [3, 6]: 82%
ORR [3, 6]: 29%
Stable diseases [3, 6]: 9
Partial responses ([3]; Cohort 3, time point 2, 17 evaluable patients, rebastinib 100 or 50 mg BID + paclitaxel): 5
Muscular weakness, patients ([3]; Cohort 3, time point 2, initially 100 mg BID rebastinib (10 patients)): 4 patients
Muscular weakness at reduced dose ([3]; Cohort 3, time point 2, reduced dose of 50 mg BID): No additional muscular weakness
CA-125 response, patients ([3]; Cohort 3, time point 3, 17 patients with CA-125 measurements): 10 (59%)
Clinical benefit rate at 8 weeks ([3]; Cohort 3, time point 3, 24 patients mITT): 88%
Objective response rate ([3]; Cohort 3, time point 3, 24 patients mITT, rebastinib 50 or 100 mg BID with weekly paclitaxel 80 mg/m^2): 38%
CA-125 response ([3]; Cohort 3, time point 4, 17 of 26 evaluable patients): 65.4%
Clinical benefit rate at 8 weeks ([3]; Cohort 3, time point 4, 34 patients mITT): 88%
Objective response rate (confirmed+unconfirmed) ([3]; Cohort 3, time point 4, platinum-resistant ovarian cancer, 34 patients mITT, rebastinib 50 or 100 mg BID with weekly paclitaxel 80 mg/m^2): 35%
Best Overall Response: Confirmed Partial Response [3, 7]: 5 (14.7%)
Best Overall Response: Not Evaluable [3, 7]: 3 (8.8%)
Best Overall Response: Partial Response [3, 7]: 12 (35.3%)
Best Overall Response: Progressive Disease [3, 7]: 1 (2.9%)
Best Overall Response: Single Response Awaiting Confirmation [3, 7]: 4 (11.8%)
Best Overall Response: Stable Disease [3, 7]: 18 (52.9%)
Best Overall Response: Unconfirmed Single Response [3, 7]: 3 (8.8%)
Duration of Response, Events (%) [3, 8]: 5 (41.7%)
Time to Response, Mean (SD) [3, 8]: 3.1 (1.3)
Duration of Response, Kaplan-Meier Median (80% CI) ([3]; Table 1, Cohort 3, time point 4, n 12, NE: Not evaluated): 5.5 (1.9, NE)
